Data published in patent US20240381872A1, “SUBSTITUTED 2,3-DIHYDRO[1,3]THIAZOLO[4,5-B]PYRIDINES, SALTS THEREOF AND THEIR USE AS HERBICIDALLY ACTIVE SUBSTANCES” (BAYER AKTIENGESELLSCHAFT, priority 2021, published 2024).

Tests used:
Type in all cases: in vivo
[1] = system: Lolium rigidum (LOLRI); assay: Herbicidal pre-emergence action, section C (Table C5); conditions: visual grading after ca. 3 weeks; for pest or weed control at 320 g/ha / pre-emergence activity against LOLRI in %: application rate 320 g/ha
Source text: (§1) Seeds of mono- and dicotyledonous weed plants and crop plants were sown, in plastic or organic planting pots, in sandy loam and covered with soil. The compounds according to the invention, formulated in the form of wettable powders (WP) or as emulsifiable concentrates (EC), were applied to the surface of the covering soil as aqueous suspension or emulsion, with the addition of 0.5% of an additive, at an application rate of 600 l of water/ha (converted). Following treatment, the pots were placed in a greenhouse and kept under optimum growth conditions for the test plants. The visual grading of the damage to the test plants was carried out after ca. 3 weeks in comparison to untreated controls (herbicidal effect in percent (%): 100% effect=plants have died off, 0% effect=as control plants).

[2] = system: Abutilon theophrasti (ABUTH); assay: Herbicidal pre-emergence action, section C (Table C1); conditions: Abutilon theophrasti, pre-emergence, 504 h; application rate 320 g/ha; visual grading after ca. 3 weeks vs untreated controls; read-out: pre-emergence activity against ABUTH in %
Source text: as §1

[3] = system: Abutilon theophrasti (ABUTH); assay: Herbicidal pre-emergence action, section A (Table A1); conditions: application rate 1280 g/ha, visual grading after ca. 3 weeks vs untreated controls; for pest or weed control at 1280 g/ha: Abutilon theophrasti, pre-emergence, 504 h, read-out: pre-emergence activity against ABUTH in %
Source text: as §1, with “plants” for “plants and crop plants”, “sown” for “sown,”, “pots (double sowings with one species of mono- and one species of dicotyledonous weed plants per pot),” for “or organic planting pots,”, “loam,” for “loam”, “water per hectare” for “water/ha”

[4] = system: Setaria viridis (SETVI); assay: Herbicidal pre-emergence action, section C (Table C8); conditions: visual grading after ca. 3 weeks; for pest or weed control at 320 g/ha / pest or weed control at 80 g/ha: Setaria viridis, pre-emergence, 504 h, read-out: pre-emergence activity against SETVI in %
Procedure, shortened: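 Compounds applied as aqueous WP or EC preparations (0.5% additive, 600 l water/ha) onto soil covering freshly sown seeds in sandy loam. Herbicidal effect is visually estimated % damage after about 3 weeks, where 100% means plants died off and 0% matches controls.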

[5] = system: Kochia scoparia (KCHSC); assay: Herbicidal pre-emergence action, section A (Table A4); conditions: visual grading after ca. 3 weeks vs untreated controls
Procedure, shortened: (§2)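 Read-out is visual herbicidal effect in percent (100% = plants died, 0% = as control), graded ca. 3 weeks after treatment. Test compounds as WP or EC were applied to covering soil over sown seeds with 0.5% additive, 600 l water per hectare; greenhouse growth.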

[6] = system: Echinochloa crus-galli (ECHCG); assay: Herbicidal pre-emergence action, section A (Table A3); conditions: visual grading after ca. 3 weeks vs untreated controls
Procedure, shortened: as §2

[7] = system: Amaranthus retroflexus (AMARE); assay: Herbicidal post-emergence action, section E (Table E3); conditions: Amaranthus retroflexus, post-emergence, 504 h; application rate 320 g/ha; assessed visually after ca. 3 weeks; read-out: post-emergence activity against AMARE in %
Source text: (§3) Seeds of mono- and dicotyledonous weed plants and crop plants were sown, in plastic or organic planting pots, in sandy loam, covered with soil and grown in a greenhouse under controlled growth conditions. 2 to 3 weeks after sowing, the test plants were sprayed in the single-leaf stage. The compounds according to the invention, formulated in form of wettable powders (WP) or as emulsifiable concentrates (EC), were sprayed onto the green plant parts as aqueous suspension or emulsion, with the addition of 0.5% of an additive, at an application rate of 600 l of water/ha (converted). The test plants were placed in the greenhouse for ca. 3 weeks under optimum growth conditions, and then the effect of the preparations was assessed visually in comparison with untreated controls (herbicidal effect in percent (%): 100% effect=plants have died off, 0% effect=as control plants).

[8] = system: Amaranthus retroflexus (AMARE); assay: Herbicidal pre-emergence action, section A (Table A11)
Procedure, shortened: as §2

[9] = system: Alopecurus myosuroides (ALOMY); assay: Herbicidal pre-emergence action, section A (Table A2); conditions: application rate 1280 g/ha, visual grading after ca. 3 weeks vs untreated controls; for pest or weed control at 1280 g/ha: Alopecurus myosuroides, pre-emergence, 504 h, read-out: pre-emergence activity against ALOMY in %
Procedure, shortened: as §2

[10] = system: Amaranthus retroflexus (AMARE); assay: Herbicidal post-emergence action, section B (Table B11); conditions: visual rating about 3 weeks after treatment vs untreated controls; for pest or weed control at 320 g/ha: application rate 320 g/ha
Procedure, shortened: (§4)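 Activity was scored visually as percent of untreated controls about 3 weeks after spraying, where 100% meant dead plants and 0% meant no difference. Plants were treated at the one-leaf stage with WP or EC formulations in water containing 0.5% additive, applied at 600 liters per hectare.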

[11] = system: Stellaria media (STEME); assay: Herbicidal post-emergence action, section B (Table B9); conditions: visual rating about 3 weeks after treatment vs untreated controls; for pest or weed control at 1280 g/ha / pest or weed control at 320 g/ha: Stellaria media, post-emergence, 504 h, read-out: post-emergence activity against STEME in %; for pest or weed control at 1280 g/ha / post-emergence activity against STEME in %: application rate 1280 g/ha; for pest or weed control at 320 g/ha: application rate 320 g/ha
Procedure, shortened: as §4

[12] = system: Lolium rigidum (LOLRI); assay: Herbicidal post-emergence action, section B (Table B5); conditions: application rate 1280 g/ha, visual rating about 3 weeks after treatment vs untreated controls; for pest or weed control at 1280 g/ha: Lolium rigidum, post-emergence, 504 h, read-out: post-emergence activity against LOLRI in %
Experimental: Seeds of mono- and dicotyledonous weed plants were placed in plastic pots in sandy loam soil (doubly sown with in each case one species of mono- or dicotyledonous weed plants per pot), covered with soil and cultivated in a greenhouse under controlled growth conditions. 2 to 3 weeks after sowing, the test plants were treated at the one-leaf stage. The compounds of the invention, formulated in the form of wettable powders (WP) or as emulsion concentrates (EC), were applied onto the green parts of the plants as aqueous suspension or emulsion with addition of 0.5% additive at a water application rate of 600 liters per hectare (converted). After the test plants had been kept in the greenhouse under optimum growth conditions for about 3 weeks, the activity of the preparations was rated visually in comparison to untreated controls. For example, 100% activity=the plants have died, 0% activity=like control plants.

[13] = system: Echinochloa crus-galli (ECHCG); assay: Herbicidal post-emergence action, section E (Table E5); conditions: application rate 320 g/ha, visual assessment ca. 3 weeks after spraying; for pest or weed control at 320 g/ha: Echinochloa crus-galli, 504 h, read-out: post-emergence activity against ECHCG in %
Source text: as §3

[14] = Lolium rigidum, pre-emergence, 504 h, read-out: pre-emergence activity against LOLRI in %
[15] = Bassia scoparia, pre-emergence, 504 h, application rate 320 g/ha, read-out: pre-emergence activity against KCHSC in %
[16] = Amaranthus retroflexus, 504 h, application rate 320 g/ha, read-out: pre-emergence activity against AMARE in %
[17] = Amaranthus retroflexus, post-emergence, 504 h, read-out: post-emergence activity against AMARE in %
[18] = Echinochloa crus-galli, pre-emergence, 504 h, application rate 320 g/ha, read-out: pre-emergence activity against ECHCG in %

SMILES	pest or weed control at 320 g/ha [1, 14] [%]	pest or weed control at 1280 g/ha [3] [%]	pest or weed control at 320 g/ha ([4]; application rate 320 g/ha) [%]	pest or weed control at 320 g/ha [5, 15] [%]	pest or weed control at 320 g/ha [7] [%]	pest or weed control at 320 g/ha [8, 16] [%]	pest or weed control at 1280 g/ha [9] [%]	pest or weed control at 320 g/ha [10, 17] [%]	pest or weed control at 1280 g/ha [11] [%]	pest or weed control at 80 g/ha ([4]; application rate 80 g/ha) [%]	pest or weed control at 320 g/ha [6, 18] [%]	post-emergence activity against STEME in % [11] [%]	other results
CC(=O)N1CSc2cc(Br)c(-c3ccccc3Cl)nc21 [Example I-055, 1-[6-bromo-5-(2-chlorophenyl)[1,3]thiazolo[4,5-b]pyridin-3(2H)-yl]ethanone]	90	90	100	90	80	90	90	90	90	–	–	–	pest or weed control at 320 g/ha [2]: 80%; pest or weed control at 1280 g/ha ([6]; Echinochloa crus-galli, pre-emergence, 504 h, application rate 1280 g/ha, read-out: pre-emergence activity against ECHCG in %): 100%
Cc1cc2c(nc1-c1cccc(F)c1F)NCS2 [Example I-029, 5-(2,3-difluorophenyl)-6-methyl-2,3-dihydro[1,3]thiazolo[4,5-b]pyridine]	100	90	–	100	80	90	90	90	–	100	100	–	pest or weed control at 1280 g/ha [12]: 90%; pest or weed control at 320 g/ha [13]: 80%; pest or weed control at 320 g/ha [11]: 90%
CCS(=O)(=O)N1C[S+]([O-])c2cc(C)c(-c3ccccc3C)nc21 (stereo not drawn) [Example I-074]	–	90	100	–	–	90	90	–	90	–	100	–	pest or weed control at 1280 g/ha ([5]; Bassia scoparia, pre-emergence, 504 h, application rate 1280 g/ha, read-out: pre-emergence activity against KCHSC in %): 100%; pest or weed control at 1280 g/ha ([10]; Amaranthus retroflexus, post-emergence, 504 h, application rate 1280 g/ha, read-out: post-emergence activity against AMARE in %): 90%
Cc1cc2c(nc1-c1cccc(C)c1F)NCS2 [Example I-113]	–	–	–	–	–	–	–	–	–	–	–	90	pre-emergence activity against LOLRI in % [1]: 90%; pre-emergence activity against SETVI in % ([4]; application rate 320 g/ha): 100%; pre-emergence activity against KCHSC in % ([5]; application rate 320 g/ha): 90%; pre-emergence activity against ECHCG in % ([6]; application rate 1280 g/ha): 100%; post-emergence activity against LOLRI in % [12]: 90%; post-emergence activity against ECHCG in % [13]: 80%; pre-emergence activity against AMARE in % ([8]; application rate 320 g/ha): 90%
COC(=O)CCC(=O)N1CSc2cc(Cl)c(-c3ccccc3F)nc21 [Example I-003]	–	–	–	–	–	–	–	–	–	–	–	90	pre-emergence activity against ABUTH in % [3]: 90%; pre-emergence activity against SETVI in % ([4]; application rate 320 g/ha): 100%; pre-emergence activity against KCHSC in % ([5]; application rate 1280 g/ha): 100%; pre-emergence activity against ECHCG in % ([6]; application rate 1280 g/ha): 100%; post-emergence activity against LOLRI in % [12]: 90%; post-emergence activity against ECHCG in % [13]: 80%; pre-emergence activity against AMARE in % ([8]; application rate 1280 g/ha): 90%; pre-emergence activity against ALOMY in % [9]: 100%; post-emergence activity against AMARE in % ([10]; application rate 1280 g/ha): 90%
BN1CSc2cc(Br)c(-c3ccccc3C)nc21 [Example I-011]	–	–	–	–	–	–	–	–	–	–	–	90	pre-emergence activity against LOLRI in % [1]: 100%; pre-emergence activity against SETVI in % ([4]; application rate 80 g/ha): 100%; pre-emergence activity against KCHSC in % ([5]; application rate 1280 g/ha): 90%; pre-emergence activity against ECHCG in % ([6]; application rate 320 g/ha): 100%; pre-emergence activity against AMARE in % ([8]; application rate 1280 g/ha): 90%; post-emergence activity against AMARE in % ([10]; application rate 1280 g/ha): 90%
Clc1ccccc1-c1nc2c(cc1Br)SCN2 [Example I-041, 6-bromo-5-(2-chlorophenyl)-2,3-dihydro[1,3]thiazolo[4,5-b]pyridine]	–	90	–	90	–	90	90	90	–	90	100	–	pest or weed control at 1280 g/ha [12]: 90%; pest or weed control at 320 g/ha [11]: 90%
CCc1ccccc1-c1nc2c(cc1C)[S+]([O-])CN2 (stereo not drawn) [Example I-047]	100	–	100	–	–	–	–	90	90	–	100	–	pest or weed control at 1280 g/ha ([8]; Amaranthus retroflexus, 504 h, application rate 1280 g/ha, read-out: pre-emergence activity against AMARE in %): 90%
CC(C)C(=O)N1C[S+]([O-])c2cc(Br)c(-c3ccccc3)nc21 (stereo not drawn) [Example I-067]	80	–	100	–	80	–	–	–	–	–	–	–	–
Fc1ccccc1-c1nc2c(cc1Br)SCN2 [Example I-001, 6-bromo-5-(2-fluorophenyl)-2,3-dihydro[1,3]thiazolo[4,5-b]pyridine]	–	–	–	–	80	–	–	–	–	100	–	–	pest or weed control at 80 g/ha ([1]; Lolium rigidum, pre-emergence, 504 h, application rate 80 g/ha, read-out: pre-emergence activity against LOLRI in %): 100%; pest or weed control at 320 g/ha [13]: 90%
